Literature values, collected in patent US20060269582A1, “Arthropod repellent comprising extracts and/or parts of the plant vitex agnus-castus” (Alpha-Biocare GmbH, priority 2002, published 2006).

What was measured:
ticks and mites = conditions: state of the art
ticks = conditions: state of the art

SMILES	efficiency / activity against ticks and mites (ticks and mites)	activity against ticks (ticks)	duration of protection against ticks (ticks)
CC1=C(C=O)C(CC=O)CC1 (stereo not shown) [2-(2-formyl-3-methyl-cyclopent-2-enyl)acetaldehyde]	low or even not there	–	–
CCC(C)OC(=O)N1CCCCC1CCO (stereo not shown) [Bayrepel]	–	poor	about two
CCN(CC)C(=O)c1cccc(C)c1 [DEET, N,N-diethyl-m-toluamide]	low efficiency	–	–
